# Measured values reported in paper PMC10686989, “Distinct activation mechanisms of β-arrestin-1 revealed by ^19F NMR spectroscopy” (Nature Communications, 2023).
# Columns and labels:
# βarr1 [1] = biological target: T1, βarr1 (Homo sapiens, UniProt P49407, C125S/C140L/C150V/C242V/C251V/C269S/C59V/D390C); test: 19F CEST experiments on βarr1; type: biochemical
# T1 construct: we started from a full-length functional cysteine-less βarr1 construct[20]; 6xHis-tag with SSG linker and thrombin cleavage site (N, cleaved yes); made in house; host or cells: E. coli BL21(DE3)
# T1 sequence (P49407 whole entry C59V/C125S/C140L/C150V/C242V/C251V/C269S/D390C): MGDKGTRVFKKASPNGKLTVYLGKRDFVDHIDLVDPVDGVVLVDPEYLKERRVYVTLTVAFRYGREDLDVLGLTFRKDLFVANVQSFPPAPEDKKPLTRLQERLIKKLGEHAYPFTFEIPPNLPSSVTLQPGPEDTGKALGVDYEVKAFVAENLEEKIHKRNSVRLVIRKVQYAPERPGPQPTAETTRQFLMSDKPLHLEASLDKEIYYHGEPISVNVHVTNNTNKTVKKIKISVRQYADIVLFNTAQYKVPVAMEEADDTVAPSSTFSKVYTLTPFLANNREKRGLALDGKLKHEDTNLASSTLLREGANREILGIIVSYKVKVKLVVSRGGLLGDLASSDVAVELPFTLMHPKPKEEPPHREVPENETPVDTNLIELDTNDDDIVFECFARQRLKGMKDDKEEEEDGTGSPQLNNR
# Method: The ^19F CEST experiments were acquired at 298 K on Bruker AVANCE III HD 800 MHz spectrometer equipped a ^1H-^19F/^13C/^15N TCI triple resonance cryogenic probe. Sample preparation was the same as for the 1D ^19F NMR experiments, and the protein concentrations were in the range of 50–100 μM depending on the expression levels of different constructs. For each ^19F-labeled sample, a series of 1D saturation transfer experiments were recorded using a 0.2 s recovery delay followed by a 1.8 s saturation period using irradiation field strengths B1 of 10 Hz. For each sample, the positions and spacings of the carrier frequencies for saturation were determined based on the multiple signals observed in the 1D ^19F spectra, normally covering the chemical shift ranges of the signals of interest. The data were collected with a spectral width of 15,000 Hz and the scan number in the range of 400–1500. The spectra were processed and analyzed using the Bruker Topspin 4.2.0 software. The CEST profiles were drawn using GraphPad Prism® 9.
# βarr1 [2] = biological target: T1, βarr1; test: 19F NMR titration of V2Rpp or PIP2 into βarr1 (activation); type: biochemical; settings: V2Rpp up to 1.2:1, PIP2 up to 3.0:1 molar ratio
# Method: All ^19F NMR spectra were recorded at 298 K using a Bruker AVANCE III HD 800 MHz spectrometer equipped with a ^1H-^19F/^13C/^15N TCI triple resonance cryogenic probe. All data were acquired and processed using the Bruker Topspin 4.2.0 software. For all 1D ^19F NMR experiments, the traditional one-pulse sequence was used. The carrier frequency was set to −68.0 ppm and the spectra were recorded with 4k points and a spectral width of 15,000 Hz. Because accurate calibration of the 90° excitation pulse length for individual samples is not practical due to the low protein concentrations, we used the 90° pulse length calibrated from a standard sample (0.05% Trifluoro-toluene in CDCl3) for all βarr1 samples. […] Therefore, all the ^19F experiments were conducted with a 100 ms relaxation delay, and acquired using 100,000–200,000 scans depending on the sample condition, yielding a signal-to-noise (S/N) ratio of approximately 50. […]
# All NMR data were analyzed using the MestraNova 12.0.0 software (https://mnova.pl). […] Peak intensities, integrated peak area and linewidths were determined based on the fitted results. […]
# (c) Estimation of the V2Rpp-βarr1 binding affinity based on peak intensity changes of the D390C site of βarr1 titrated with V2Rpp. […] The values of θ were calculated as by θ = V-,⁄(V-. + V-,), in which VS1 and VS2 correspond to the volume integrals of the peaks of S1 and S2 states, respectively. […]
compound,measurement,setting,value
"CCCCCCCC(=O)OC[C@H](COP(=O)(O)O[C@@H]1[C@H](O)[C@H](O)[C@@H](OP(=O)(O)O)[C@H](OP(=O)(O)O)[C@H]1O)OC(=O)CCCCCCC [PIP2, diC8-PI(4,5)P2]",Intermediate S* state by CEST,βarr1 [1]; D390C site,induces an intermediate conformational species designated as S*
same,Intermediate S* state by CEST,βarr1 [1]; E404C and T6C sites,induces the conformational equilibrium to shift from the basal towards an intermediate S* state
same,Intermediate S* state by CEST,βarr1 [1]; H295C site,present in relatively large fraction in both the basal and PIP2-bound states
same,Activation of βarr1 at D390C on titration,βarr1 [2]; D390C site,minimally affects
same,Activation of βarr1 at H295C on titration,βarr1 [2]; H295C site,partially activates
